Reference: PMC5290327, “SC83288 is a clinical development candidate for the treatment of severe malaria” (Nature Communications, 2017)
Values after ≈ are worked out from the molar mass of the structure shown. Each block holds one compound with its values, some of them ahead of it.

Legend:
sst (non-selective) = experiment: Radioligand binding; details: control compound
Experimental: (§1) The study was carried out by Cerep (Celle l'Evescault, France). An in vitro pharmacological profiling panel was designed to detect potential high-risk clinical adverse drug reactions. The panel comprised of 54 targets.
(§2) The specific ligand binding to the receptors was defined as the difference between the total binding and the non-specific binding determined in the presence of an excess of unlabelled ligand. Results were expressed as a per cent of control specific binding and as a per cent inhibition of control specific obtained in the presence of the test compounds. Results showing an inhibition (or stimulation) >50% were considered to represent significant effects of the test compounds. […] The IC50 values were determined by non-linear regression analysis of the competition curves generated with mean replicate values using Hill equation curve fitting. The inhibition constants (Ki) were calculated using the Cheng Prusoff equation.

CCR1 (h) = target: T1, CCR1 (h) (Homo sapiens, UniProt P32246); experiment: Radioligand binding; details: control compound
T1 construct: Cerep
T1 sequence (P32246 1-355): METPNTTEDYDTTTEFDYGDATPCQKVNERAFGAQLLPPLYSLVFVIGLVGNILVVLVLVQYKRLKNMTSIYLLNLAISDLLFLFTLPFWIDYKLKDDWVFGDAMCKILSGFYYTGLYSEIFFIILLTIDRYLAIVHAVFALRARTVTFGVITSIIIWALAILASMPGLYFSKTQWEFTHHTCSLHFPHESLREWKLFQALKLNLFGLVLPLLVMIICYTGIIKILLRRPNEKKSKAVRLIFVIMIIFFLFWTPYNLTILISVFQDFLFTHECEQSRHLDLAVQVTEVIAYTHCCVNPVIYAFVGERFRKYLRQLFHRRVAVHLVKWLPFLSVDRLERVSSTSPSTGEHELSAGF

a1 (non-selective) = experiment: Radioligand binding; details: control compound
Experimental: as §1, §2

[1] = system: cytoplasmic free Ca2+ in P. falciparum HB3 trophozoites; experiment: Ca2+ live imaging, Fluo-4; details: SC compounds 10 and 20 μM; CPA 10 μM
5-HT2B (h) = target: T2, 5-HT2B (h) (Homo sapiens, UniProt P41595); experiment: Radioligand binding; details: control compound
T2 construct: Cerep (contract screening)
Experimental: as §1, §2

Permeability assay = assay type: in vitro ADME; details: human; CACO 2 cells, 10 μM, apical side, 2 h
Experimental: The study was conducted by Cyprotex (Macclesfield, United Kingdom). CACO 2 cells (Sigma-Aldrich, catalogue: 86010202) were seeded on Millipore Millicell plates and formed a confluent monolayer over 20 days before the experiment. On day 20, the tested compounds at a final concentration of 10 μM were added to the apical side of the membrane. The transport of the compound across the monolayer was monitored over a 2 h period by liquid chromatography (LC)–MS/MS quantification. The permeability coefficient (Papp) was calculated from the following equation: [drawing 1] , where dQ/dt is the rate of permeation of the drug across the cells, C0 the donor compartment concentration at time zero and A the area of the cell monolayer. C0 was obtained from analysis of the dosing solution at the start of the experiment.

PK study = assay type: in vivo, rat; details: rat, plasma, po; rats
Experimental: On the treatment day, all animals were weighed and the dosing volume was calculated for each individual animal according to its actual body weight. All animal were dosed once. Blood samples were taken at different time points and plasma was collected after centrifugation (10,000g, 10 min, 4 °C). Plasma samples were analysed by LC–MS/MS. […] All relevant observations were recorded. The PK studies in cynomolgus monkeys and beagle dogs were performed by the Laboratory of Pharmacology and Toxicology (LPT), Hamburg, and PK and toxicity studies in mice and rats were performed by the 4SC Discovery GmbH, Munich. PK parameters were obtained by a non-compartment analysis, using Kinetica 4.1 (Thermo Scientific).

Plasmodium berghei = experiment: Rodent malaria model; assay type: in vivo; details: for Outcome: P. berghei
Experimental: This was the case for both an in vivo 4 day dosing regimen of 30 mg kg^−1 per day and an ex vivo one-cycle growth inhibition assay. […] Differential therapeutic efficacy in various rodent model systems is a well-established phenomenon and is typically associated with charged compounds, such as positively charged amidines and negatively charged phosphoric acid or carboxylic acid containing drugs. The phenomenon is explained based on selective uptake of charged compounds through parasite-induced channels, termed new permeation pathways, in the host cell plasma membrane and species-specific characteristics of the new permeation pathways.

P. chabaudi = experiment: Rodent malaria model; assay type: in vivo; details: 10 mg kg-1 i.v. 1x4 days
[2] = In vitro metabolism in liver microsomes; details: human microsome assay
Solubility in water = details: water
Plasmodium vinckei = experiment: Rodent malaria model; assay type: in vivo; details: P. vinckei, 30 mg kg-1 i.p. 1x4 days
Text: The two SC compounds were also active in the Plasmodium vinckei rodent malaria model system.

P. falciparum strain Dd2 = experiment: Growth inhibition assay, asexual blood stages; assay type: cell-based, Plasmodium falciparum; details: Plasmodium falciparum
HepG2 cells = experiment: Cytotoxicity; details: 10 μM
Na+ channel (site 2) = experiment: Radioligand binding; details: control compound
TP (h) (TXA2/PGH2) = target: T3, TP (h) (TXA2/PGH2) (Homo sapiens, UniProt P21731); experiment: Radioligand binding; details: control compound
T3 construct: Cerep
T3 sequence (P21731 1-343): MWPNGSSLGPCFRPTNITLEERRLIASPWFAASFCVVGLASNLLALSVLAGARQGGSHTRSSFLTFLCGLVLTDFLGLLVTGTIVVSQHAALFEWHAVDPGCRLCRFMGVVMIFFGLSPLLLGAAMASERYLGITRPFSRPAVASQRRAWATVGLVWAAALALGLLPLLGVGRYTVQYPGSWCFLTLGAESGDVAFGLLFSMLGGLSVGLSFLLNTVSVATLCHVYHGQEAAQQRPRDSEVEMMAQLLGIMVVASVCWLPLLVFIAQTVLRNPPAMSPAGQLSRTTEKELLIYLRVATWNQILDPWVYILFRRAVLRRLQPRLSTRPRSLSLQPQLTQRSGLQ

a2 (non-selective) = experiment: Radioligand binding; details: control compound
Experimental: as §1, §2

[3] = system: Dd2 P. falciparum parasites; experiment: In vitro parasite reduction ratio assay (Sanz protocol); assay type: cell-based, Plasmodium falciparum
Dd2 SC81458 resistant = experiment: Growth inhibition assay; assay type: cell-based; details: Plasmodium falciparum
Experimental: (§3) To identify the mode of action/mechanism of resistance of SC81458 and […], a chemogenomic approach was used, whereby resistant parasites were obtained by in vitro drug pressure selection and subjected to whole-genome sequencing to identify the genetic basis of resistance. Three independent selections of Dd2 parasites at an initial population of 10^10 infected red blood cells (performed in 150 ml flasks, 2% haematocrit) were subjected to SC81458 or SC83288 at a starting concentration of 50 nM. […] Drug resistance was confirmed by measuring the IC50s, after two consecutive cycles in absence of the drug, using a SYBRGreen growth inhibition assay as previously described. After up to 200 days of drug pressure, the drug-resistant lines were clones by limiting dilution for single-cell isolation and genomic DNA was extracted using the DNeasy Blood&Tissue kit (Qiagen, USA) and subjected to ultra-deep sequencing.

Dd2 SC83288 resistant = experiment: Growth inhibition assay; assay type: cell-based; details: Plasmodium falciparum
Experimental: as §3

CXCR2 (IL-8B) (h) = target: T4, CXCR2 (IL-8B) (h) (Homo sapiens, UniProt P25025); experiment: Radioligand binding; details: control compound
T4 construct: Cerep
T4 sequence (P25025 1-360): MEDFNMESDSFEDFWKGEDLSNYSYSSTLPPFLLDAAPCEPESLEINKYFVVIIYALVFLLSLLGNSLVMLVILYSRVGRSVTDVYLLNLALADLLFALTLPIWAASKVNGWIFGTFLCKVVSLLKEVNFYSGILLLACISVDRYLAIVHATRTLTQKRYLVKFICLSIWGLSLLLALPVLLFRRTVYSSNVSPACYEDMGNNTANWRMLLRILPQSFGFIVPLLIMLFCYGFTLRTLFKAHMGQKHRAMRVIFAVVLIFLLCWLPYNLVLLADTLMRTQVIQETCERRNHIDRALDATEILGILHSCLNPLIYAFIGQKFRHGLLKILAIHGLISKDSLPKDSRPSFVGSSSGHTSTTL

[4] = target: Ca2+ channel (L, verapamil site); experiment: Radioligand binding; details: control compound
Experimental: as §1, §2

[5] = read-out: Control specific binding IC50
[6] = read-out: Control specific binding Ki

T2 sequence (P41595 whole entry): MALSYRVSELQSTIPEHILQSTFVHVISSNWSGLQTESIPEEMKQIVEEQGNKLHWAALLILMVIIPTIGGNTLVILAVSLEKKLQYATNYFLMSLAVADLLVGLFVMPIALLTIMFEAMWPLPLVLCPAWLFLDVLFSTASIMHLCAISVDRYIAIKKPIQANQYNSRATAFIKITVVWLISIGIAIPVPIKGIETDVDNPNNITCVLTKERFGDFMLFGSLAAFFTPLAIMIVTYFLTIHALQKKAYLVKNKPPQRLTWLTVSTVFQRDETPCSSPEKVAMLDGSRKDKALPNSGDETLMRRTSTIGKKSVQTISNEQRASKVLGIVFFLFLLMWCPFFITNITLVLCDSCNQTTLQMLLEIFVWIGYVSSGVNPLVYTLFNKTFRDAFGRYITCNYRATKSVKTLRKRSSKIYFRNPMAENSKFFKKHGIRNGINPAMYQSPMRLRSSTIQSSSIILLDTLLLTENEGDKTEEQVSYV

Compound: somatostatin-14: control compound of the binding panel [reference compound]
IC50 (sst (non-selective); [5]): 0.15 nM
Ki (sst (non-selective); [6]): 0.092 nM

IC50 (CCR1 (h); [5]): 0.06 nM
Ki (CCR1 (h); [6]): 0.03 nM
Compound: MIP-1a: control compound of the binding panel [reference compound]

Compound: COc1cc2nc(N3CCN(C(=O)c4ccco4)CC3)nc(N)c2cc1OC [prazosin, reference compound]
IC50 (a1 (non-selective); [5]): 0.82 nM
Ki (a1 (non-selective); [6]): 0.22 nM

Compound: CC(=O)C1=C(O)[C@@H]2[C@H]3c4c[nH]c5cccc(c45)C[C@H]3C(C)(C)N2C1=O [CPA, cyclopiazonic acid, reference compound]
effect on cytoplasmic free Ca^2+ [1]: induced a strong Ca^2+ responses

Compound: COc1cc(CC(C)N)c(OC)cc1I (racemic) [(±)DOI, reference compound]
IC50 (5-HT2B (h); [5]): 5.1 nM
Ki (5-HT2B (h); [6]): 4.6 nM

Compound: N=C(N)c1cccc(NC(=O)Nc2ccc(S(=O)(=O)NCc3ccc(S(N)(=O)=O)cc3)cc2)c1 [SC09064]
Papp at 2 h, 10 μM (Permeability assay): 0.28 ×10⁻⁶ cm/s
bioavailability (PK study): 3%
Outcome (Plasmodium berghei; 10 mg kg-1 i.v. 1x4 days): inactive
Outcome (Plasmodium berghei; 50 mg kg-1 i.p. 1x4 days): inactive
activity against P. berghei (Plasmodium berghei; in vivo): no activity
Outcome (P. chabaudi): inactive
metabolic stability, residual after 1 h of incubation [2]: 65%
solubility (Solubility in water): 316 µg/mL (≈ 629 µM)
Outcome (Plasmodium vinckei): inactive
Ames test (Ames test): negative
IC50 (P. falciparum strain Dd2; DD2, 72 h, Dd2, standard proliferation assay, 72 h exposure): 10 ± 3 nM
adverse effects on HepG2 cells (HepG2 cells): no adverse effects

Compound: COc1ccc(C(=O)O[C@H]2CC[C@@]3(C)[C@@H]4CC[C@H]5[C@]6(O)C[C@H](O)[C@@]7(O)[C@@H](CN8C[C@@H](C)CC[C@H]8[C@@]7(C)O)[C@]6(O)C[C@@]53O[C@]24O)cc1OC [veratridine, reference compound]
IC50 (Na+ channel (site 2); [5]): 10000 nM
Ki (Na+ channel (site 2); [6]): 9000 nM

IC50 (TP (h) (TXA2/PGH2); [5]): 14 nM
Ki (TP (h) (TXA2/PGH2); [6]): 6.2 nM
Compound: CCCCC[C@H](O)/C=C/[C@H]1[C@@H]2CO[C@@H](C2)[C@@H]1C/C=C\CCCC(=O)O [U 44069, reference compound]

Compound: COC(=O)[C@@H]1[C@H]2C[C@H]3c4[nH]c5ccccc5c4CCN3C[C@@H]2CC[C@@H]1O [yohimbine, reference compound]
IC50 (a2 (non-selective); [5]): 69 nM
Ki (a2 (non-selective); [6]): 30 nM

Compound: O=C1C(O)=C([C@H]2CC[C@H](c3ccc(Cl)cc3)CC2)C(=O)c2ccccc21 [atovaquone, reference compound]
In vitro PCT99.9% ([3]; 10 times IC50, Dd2): 89 ± 7 h
In vitro lag phase ([3]; 10 times IC50, Dd2): > 24 h
In vitro logPRR ([3]; 10 times IC50, Dd2, over 48 h): 2.1±0.4
IC50 (P. falciparum strain Dd2; DD2, Dd2, Supplementary Table 11): 0.6 ± 0.1 nM
IC50 (Dd2 SC81458 resistant): 0.3 ± 0.1 nM
IC50 (Dd2 SC83288 resistant): 0.8 ± 0.1 nM

IC50 (CXCR2 (IL-8B) (h); [5]): 0.063 nM
Ki (CXCR2 (IL-8B) (h); [6]): 0.029 nM
Compound: IL-8: control compound of the binding panel [reference compound]

Compound: COc1ccc(CCN(C)CCCC(C#N)(c2cc(OC)c(OC)c(OC)c2)C(C)C)cc1OC (stereo not shown) [D 600, reference compound]
IC50 [4, 5]: 67 nM
Ki [4, 6]: 34 nM
